Measurements as given in PubChem BioAssay AID248 (DTP/NCI, 2004).
Toxic doses and inconclusive results are not listed. Rule as the data show it: active = T/C of 150% or more; inactive = T/C below 125%.

Test system: L1210 leukemia ip in BDF1 mice, survival T/C
Assay: NCI In Vivo Anticancer Drug Screen. Data for tumor model L1210 Leukemia (intraperitoneal) in B6D2F1 (BDF1) mice
Details: endpoint: mean survival time, higher = longer survival
Outline: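 Transplanted-tumor mice were given test agent; controls received vehicle only. Survival readings from the two groups were divided (treated over control).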

[1] = dose: 100.0 mg/kg/injection, schedule: Q01DX001 (ip), vehicle: saline
[2] = dose: 100.0 mg/kg/injection, schedule: Q01DX001 (ip), vehicle: Klucel (hydroxypropylcellulose) (HPC)
[3] = dose: 200.0 mg/kg/injection, schedule: Q01DX001 (ip), vehicle: Klucel (hydroxypropylcellulose) (HPC)
[4] = dose: 400.0 mg/kg/injection, schedule: Q01DX001 (ip), vehicle: Klucel (hydroxypropylcellulose) (HPC)
[5] = dose: 50.0 mg/kg/injection, schedule: Q01DX001 (ip), vehicle: carboxymethylcellulose (CMC)
[6] = dose: 100.0 mg/kg/injection, schedule: Q01DX001 (ip), vehicle: carboxymethylcellulose (CMC)
[7] = dose: 200.0 mg/kg/injection, schedule: Q01DX001 (ip), vehicle: carboxymethylcellulose (CMC)
[8] = dose: 400.0 mg/kg/injection, schedule: Q01DX001 (ip), vehicle: carboxymethylcellulose (CMC)
[9] = dose: 50.0 mg/kg/injection, schedule: Q01DX009 (ip), vehicle: saline
[10] = dose: 100.0 mg/kg/injection, schedule: Q01DX009 (ip), vehicle: saline
[11] = dose: 100.0 mg/kg/injection, schedule: Q04DX003 (ip), vehicle: saline with Tween-80
[12] = dose: 200.0 mg/kg/injection, schedule: Q04DX003 (ip), vehicle: saline with Tween-80
[13] = dose: 400.0 mg/kg/injection, schedule: Q04DX003 (ip), vehicle: saline with Tween-80
[14] = dose: 100.0 mg/kg/injection, schedule: Q01DX009 (ip), vehicle: saline with Tween-80
[15] = dose: 200.0 mg/kg/injection, schedule: Q01DX009 (ip), vehicle: saline with Tween-80
[16] = dose: 400.0 mg/kg/injection, schedule: Q01DX009 (ip), vehicle: saline with Tween-80
[17] = dose: 100.0 mg/kg/injection, schedule: Q04DX003 (ip), vehicle: saline
[18] = dose: 200.0 mg/kg/injection, schedule: Q04DX003 (ip), vehicle: saline

Measured: T/C

Cc1ccc(S(=O)(=O)CCN2CCN(C)CC2)cc1
inactive: [1] 100 % of control | dose: 200.0 mg/kg/injection, schedule: Q01DX001 (ip), vehicle: saline 94 % of control

O=C(Nc1cnc2ccccc2c1)Nc1cnc2ccccc2c1
inactive: dose: 87.5 mg/kg/injection, schedule: Q01DX009 (ip), vehicle: Klucel (hydroxypropylcellulose) (HPC) 87 % of control | dose: 175.0 mg/kg/injection, schedule: Q01DX009 (ip), vehicle: Klucel (hydroxypropylcellulose) (HPC) 97 % of control | dose: 350.0 mg/kg/injection, schedule: Q01DX009 (ip), vehicle: Klucel (hydroxypropylcellulose) (HPC) 89 % of control

Nc1ncnc2c(-c3ccccc3)c[nH]c12
inactive: [2] 102 % of control | dose: 100.0 mg/kg/injection, schedule: Q04DX003 (ip), vehicle: Klucel (hydroxypropylcellulose) (HPC) 100 % of control | [3] 97 % of control | dose: 200.0 mg/kg/injection, schedule: Q04DX003 (ip), vehicle: Klucel (hydroxypropylcellulose) (HPC) 100 % of control | [4] 91 % of control | dose: 400.0 mg/kg/injection, schedule: Q04DX003 (ip), vehicle: Klucel (hydroxypropylcellulose) (HPC) 104 % of control

S=C(C/C=C/CC(=S)SN(c1ccccc1)c1ccccc1)SN(c1ccccc1)c1ccccc1
inactive: dose: 100.0 mg/kg/injection, schedule: Q01DX009 (ip), vehicle: Klucel (hydroxypropylcellulose) (HPC) 91 % of control | dose: 200.0 mg/kg/injection, schedule: Q01DX009 (ip), vehicle: Klucel (hydroxypropylcellulose) (HPC) 95 % of control | dose: 400.0 mg/kg/injection, schedule: Q01DX009 (ip), vehicle: Klucel (hydroxypropylcellulose) (HPC) 90 % of control

NNc1ccccc1C(=O)O
inactive: [5] 94 % of control | [6] 94 % of control | [7] 105 % of control | [8] 94 % of control

O=[N+]([O-])c1ccc(CSC2=NCCN2)cc1
inactive: dose: 25.0 mg/kg/injection, schedule: Q01DX009 (ip), vehicle: saline 96 % of control | [9] 104 % of control | [10] 98 % of control

CC(=O)OCCn1c(C)nc2cc(Cl)c(Cl)cc21
inactive: dose: 100.0 mg/kg/injection, schedule: Q04DX003 (ip), vehicle: acetone 94 % of control | dose: 200.0 mg/kg/injection, schedule: Q04DX003 (ip), vehicle: acetone 98 % of control | dose: 400.0 mg/kg/injection, schedule: Q04DX003 (ip), vehicle: acetone 93 % of control

CCNS(=O)(=O)c1cccc(C(=S)OCC)c1
inactive: [2] 105 % of control | [3] 101 % of control | [4] 108 % of control

CC(=O)c1ccc(C(=O)NCCCc2c(C)nc(N)[nH]c2=O)cc1
inactive: [11] 95 % of control | [12] 90 % of control | [13] 90 % of control

CC(C)(C)C1CCC(N)CC1 (configuration not stated)
inactive: dose: 12.5 mg/kg/injection, schedule: Q01DX001 (ip), vehicle: carboxymethylcellulose (CMC) 104 % of control | dose: 25.0 mg/kg/injection, schedule: Q01DX001 (ip), vehicle: carboxymethylcellulose (CMC) 98 % of control | [5] 104 % of control

N#CCCNC(CO)C(=O)O (configuration not stated)
inactive: [6] 94 % of control | [7] 92 % of control | [8] 89 % of control

Cc1ccccc1NC(=O)C1CCCC1=O (configuration not stated)
inactive: dose: 50.0 mg/kg/injection, schedule: Q01DX001 (ip), vehicle: saline 101 % of control | [1] 103 % of control | dose: 400.0 mg/kg/injection, schedule: Q01DX001 (ip), vehicle: saline 109 % of control

Cc1cc(=O)cc(C)o1
inactive: [14] 108 % of control | [15] 100 % of control | [16] 102 % of control

Nc1nc(N)c(-c2ccc(Cl)c(Cl)c2)c(CO)n1
inactive: [11] 98 % of control | [12] 107 % of control | [13] 117 % of control

O=c1[nH][nH]c(=O)n1-c1ccccc1
inactive: dose: 25.0 mg/kg/injection, schedule: Q01DX009 (ip), vehicle: saline with Tween-80 96 % of control | dose: 50.0 mg/kg/injection, schedule: Q01DX009 (ip), vehicle: saline with Tween-80 94 % of control | [14] 100 % of control | dose: 100.0 mg/kg/injection, schedule: Q04DX002 (ip), vehicle: saline with Tween-80 100 % of control | dose: 177.0 mg/kg/injection, schedule: Q04DX002 (ip), vehicle: saline with Tween-80 95 % of control | [15] 93 % of control | dose: 200.0 mg/kg/injection, schedule: Q04DX002 (ip), vehicle: saline with Tween-80 103 % of control | dose: 266.0 mg/kg/injection, schedule: Q04DX002 (ip), vehicle: saline with Tween-80 98 % of control | [16] 93 % of control | dose: 600.0 mg/kg/injection, schedule: Q04DX002 (ip), vehicle: saline with Tween-80 95 % of control

OC(c1ccccc1)(c1ccccc1)c1ccccc1Cl
inactive: [17] 94 % of control | [18] 91 % of control | dose: 400.0 mg/kg/injection, schedule: Q04DX003 (ip), vehicle: saline 91 % of control

Cc1cc(=O)[nH]c2c1CCC2
inactive: [9] 92 % of control | [10] 95 % of control | [17] 106 % of control | [18] 108 % of control

O=C(CC1C(=O)Nc2ccccc21)CC1C(=O)Nc2ccccc21 (configuration not stated)
inactive: dose: 100.0 mg/kg/injection, schedule: Q04DX002 (ip), vehicle: Klucel (hydroxypropylcellulose) (HPC) 102 % of control | dose: 200.0 mg/kg/injection, schedule: Q04DX002 (ip), vehicle: Klucel (hydroxypropylcellulose) (HPC) 97 % of control | dose: 400.0 mg/kg/injection, schedule: Q04DX002 (ip), vehicle: Klucel (hydroxypropylcellulose) (HPC) 102 % of control

CN1CCOC1=Nc1cccc2c1CCCC2
inactive: dose: 50.0 mg/kg/injection, schedule: Q01DX009 (ip), vehicle: other 96 % of control | dose: 100.0 mg/kg/injection, schedule: Q01DX009 (ip), vehicle: other 101 % of control | dose: 400.0 mg/kg/injection, schedule: Q01DX009 (ip), vehicle: other 95 % of control

O=C1NCC/C1=C\c1cc2c(cc1[N+](=O)[O-])OCO2
inactive: [5] 88 % of control | [6] 90 % of control | [7] 100 % of control | [8] 90 % of control
